Measured values as given in patent publication US8802720B2, “Acylamino-substituted fused cyclopentanecarboxylic acid derivatives and their use as pharmaceuticals” (SANOFI, priority 2008, dated 2014).

Molecular target: human Edg-2 receptor (LPA1 receptor) (Homo sapiens, UniProt Q92633)
Experiment: Edg-2 receptor inhibition by FLIPR calcium fluorescence measurement (LPA-mediated calcium liberation)
Assay type: cell-based
Details: CHO cells stably overexpressing human Edg-2 receptor; LPA 18:1 100 nM; fluo-4 fluorescence; triplicate; read-out: Inhibitory concentrations IC50 for inhibition of the Edg-2 receptor
Experimental: A) Determination of Edg-2 Receptor Inhibition by Fluorescence Imaging Plate Reader (FLIPR) Measurements
The inhibition of the Edg-2 receptor (LPA1 receptor) by the compounds of the invention was quantified by the inhibitory effect on the LPA-mediated calcium liberation in a cell-based calcium fluorescence assay by use of Chinese hamster ovarian (CHO) cells in which the human Edg-2 receptor was stably overexpressed (FIp-In system, Invitrogen). […] Changes in intracellular calcium were determined by fluorescence measurement with the calcium-sensitive dye fluo-4 (Invitrogen) in a fluorescence imaging plate reader (FLIPR, […]).
CHO cells stably overexpressing the human Edg-2 receptor were seeded (40.000 per well) in black clear-bottomed poly-D-lysine-coated 96 well plates (Becton Dickinson, Biocoat cellware) approximately 18-24 h prior to the experiments. Cells were grown in an incubator at 37° C., 5% carbon dioxide and 95% humidity in cell culture media based on F-12 glutamax media (Gibco, #31765) supplemented with 1% (vol/vol) penicilline/streptomycine (PAN, #P06-07100), 10% (vol/vol) fetal calf serum (FCS, PAA, #A15-151) and hygromycin B (Invitrogen, #10687-010) 300 mg/l (final concentrations).
Prior to the FLIPR experiment, cells were loaded with fluo-4 acetoxymethyl ester (fluo-4 AM, Invitrogen, #F14202) for 60 min in an incubator at 37° C., 5% carbon dioxide and 95% humidity in dye-loading buffer consisting of Hanks' Balanced Salt Solution (HBSS, Invitrogen, #14065049) supplemented with fluo-4 AM at 2 μM (all data given for final concentration), Pluronic® F-127 0.05% (vol/vol) (Invitrogen, #P-3000 MP), HEPES 20 mM (Gibco, #15630), probenecid 2.5 mM (Sigma, #P-8761) and bovine serum albumin 0.05% (BSA, Sigma, #A-6003), adjusted to pH 7.5 with sodium hydroxide. During cell loading, fluo-4 AM is cleaved by intracellular esterase resulting in trapping of the dye fluo-4 within the cells. Loading was terminated by washing of the cells in a cell washer (Tecan Power washer) three times with the buffer specified afore but without fluo-4 AM and BSA. This latter buffer was also used as the buffer in the subsequent cell fluorescence measurements.
The dye-loaded and washed cells were pre-incubated for approximately 5 min with various concentrations of the test compound added as a solution in DMSO (0.3% vol/vol maximum final concentration of DMSO), or with DMSO in the respective concentration only (positive control). Subsequent addition of LPA (18:1, 1-oleoyl-sn-glycerol 3-phosphate; 100 nM final concentration) leads to liberation of intracellular calcium from internal stores resulting in a large transient increase of the fluo-4 fluorescence signal which was monitored over approximately 3 min. The percent inhibition caused by the test compound was determined from the maximum fluorescence response after LPA addition to cells pre-incubated with the compound as compared to the maximum fluorescence response after LPA addition to cells pre-incubated with DMSO only. All fluorescence values were corrected for the baseline fluorescence values obtained with cells which were pre-incubated with DMSO only and were not treated with LPA (baseline control). All measurements were performed in triplicate. From the percent inhibitions the inhibitory concentration IC50 was determined.

human Edg-2 receptor (LPA1 receptor), sequence (Q92633 whole entry): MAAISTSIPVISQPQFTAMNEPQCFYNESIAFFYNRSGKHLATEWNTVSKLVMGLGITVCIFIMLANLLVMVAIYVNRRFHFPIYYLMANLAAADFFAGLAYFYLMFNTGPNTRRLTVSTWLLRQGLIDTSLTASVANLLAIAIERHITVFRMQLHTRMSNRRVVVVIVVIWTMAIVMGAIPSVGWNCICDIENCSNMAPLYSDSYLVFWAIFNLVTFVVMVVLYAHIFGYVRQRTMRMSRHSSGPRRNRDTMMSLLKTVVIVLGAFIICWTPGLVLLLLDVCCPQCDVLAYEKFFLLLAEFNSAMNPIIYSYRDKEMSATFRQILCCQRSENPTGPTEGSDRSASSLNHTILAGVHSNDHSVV

IC50	SMILES
1000 to 30000 nM	COc1ccc(C(=O)NC2(C(=O)O)Cc3ccccc3C2)cc1OCCc1cc(C)cc(C)c1 [Example 22]
< 100 nM	CCc1cccc(CCOc2cc(C(=O)NC3(C(=O)O)Cc4ccccc4C3)ccc2OC)c1 [Example 23]
< 100 nM	COc1ccc(C(=O)NC2(C(=O)O)Cc3ccccc3C2)cc1OCC1(c2cccc(C)c2)CC1 [Example 24]
< 100 nM	COc1ccc(C(=O)NC2(C(=O)O)Cc3ccccc3C2)cc1OCCc1cccc(C(C)C)c1 [Example 25]
1000 to 30000 nM	COc1ccc(C(=O)NC2(C(=O)O)Cc3ccccc3C2)cc1OCCc1ccc(C#N)cc1 [Example 26]
1000 to 30000 nM	COCCOCCOc1cc(C(=O)NC2(C(=O)O)Cc3ccccc3C2)ccc1OC [Example 28]
1000 to 30000 nM	CCOc1ccc(COc2cc(C(=O)NC3(C(=O)O)Cc4ccccc4C3)ccc2OC)cc1 [Example 29]
1000 to 30000 nM	COc1ccc(C(=O)NC2(C(=O)O)Cc3ccccc3C2)cc1OCCC1CCCCC1 [Example 30]
1000 to 30000 nM	COc1ccc(C(=O)NC2(C(=O)O)Cc3ccccc3C2)cc1OCCc1c[nH]c2ccccc12 [Example 32]
1000 to 30000 nM	COCCOc1cc(C(=O)NC2(C(=O)O)Cc3ccccc3C2)ccc1OC [Example 33]
1000 to 30000 nM	COc1ccc(C(=O)NC2(C(=O)O)Cc3ccccc3C2)cc1OCCCCc1ccccc1 [Example 34]
1000 to 30000 nM	COc1ccc(C(=O)NC2(C(=O)O)Cc3ccccc3C2)cc1OCC(C)C [Example 35]
1000 to 30000 nM	COc1ccc(C(=O)NC2(C(=O)O)Cc3ccccc3C2)cc1OCCC(C)C [Example 36]
1000 to 30000 nM	COc1ccc(C(=O)NC2(C(=O)O)Cc3ccccc3C2)cc1OCC(C)(C)C [Example 37]
1000 to 30000 nM	COc1ccc(C(=O)NC2(C(=O)O)Cc3ccccc3C2)cc1OCC1CCOC1 (centres unmarked) [Example 38]
1000 to 30000 nM	COc1ccc(C(=O)NC2(C(=O)O)Cc3ccccc3C2)cc1OCc1ccc(Cl)cc1 [Example 39]
1000 to 30000 nM	COc1ccc(C(=O)NC2(C(=O)O)Cc3ccccc3C2)cc1OCc1ccc(C(C)(C)C)cc1 [Example 40]
1000 to 30000 nM	CCc1ccc(COc2cc(C(=O)NC3(C(=O)O)Cc4ccccc4C3)ccc2OC)cc1 [Example 41]
1000 to 30000 nM	COc1ccc(C(=O)NC2(C(=O)O)Cc3ccccc3C2)cc1OCC1CCCC1 [Example 42]
1000 to 30000 nM	COc1ccc(C(=O)NC2(C(=O)O)Cc3ccccc3C2)cc1OCCCC(C)C [Example 43]

IC50	SMILES
1000 to 30000 nM	COc1ccc(C(=O)NC2(C(=O)O)Cc3ccccc3C2)cc1OCCc1cccc2ccccc12 [Example 44]
1000 to 30000 nM	COc1ccc(C(=O)NC2(C(=O)O)Cc3ccccc3C2)cc1OC/C=C/c1ccccc1 [Example 45]
1000 to 30000 nM	COc1ccc(C(=O)NC2(C(=O)O)Cc3ccccc3C2)cc1OCCc1ccccc1C(F)(F)F [Example 47]
1000 to 30000 nM	COc1ccc(C(=O)NC2(C(=O)O)Cc3ccccc3C2)cc1OCC1CCCN(C)C1 (centres unmarked) [Example 48]
1000 to 30000 nM	CCN(CC)CCCOc1cc(C(=O)NC2(C(=O)O)Cc3ccccc3C2)ccc1OC [Example 49]
100 to 1000 nM	COc1ccc(C(=O)NC2(C(=O)O)Cc3ccccc3C2)cc1OCC1CC=CCC1 (centres unmarked) [Example 50]
1000 to 30000 nM	COc1ccc(C(=O)NC2(C(=O)O)Cc3ccccc3C2)cc1OCc1nccc(Cl)c1OC [Example 52]
1000 to 30000 nM	COc1ccc(C(=O)NC2(C(=O)O)Cc3ccccc3C2)cc1OCCCC1CC(c2ccccc2)=NO1 (centres unmarked) [Example 53]
1000 to 30000 nM	COc1ccc(C(=O)NC2(C(=O)O)Cc3ccccc3C2)cc1OCCc1cc(-c2ccc(Cl)cc2)no1 [Example 54]
1000 to 30000 nM	COc1ccnc(COc2cc(C(=O)NC3(C(=O)O)Cc4ccccc4C3)ccc2OC)c1 [Example 55]
1000 to 30000 nM	CCC1(COc2cc(C(=O)NC3(C(=O)O)Cc4ccccc4C3)ccc2OC)COCOC1 [Example 56]
1000 to 30000 nM	COc1ccc(C(=O)NC2(C(=O)O)Cc3ccccc3C2)cc1OCC1CCC(C)CC1 (centres unmarked) [Example 57]
1000 to 30000 nM	COc1ccc(C(=O)NC2(C(=O)O)Cc3ccccc3C2)cc1OCCCCC(C)C [Example 59]
1000 to 30000 nM	COc1ccc(CCCCOc2cc(C(=O)NC3(C(=O)O)Cc4ccccc4C3)ccc2OC)cc1 [Example 60]
1000 to 30000 nM	COc1ccc(C(=O)NC2(C(=O)O)Cc3ccccc3C2)cc1OCCCC1CCCCC1 [Example 61]
1000 to 30000 nM	COc1ccc(C(=O)NC2(C(=O)O)Cc3ccccc3C2)cc1OCCCc1ccc(Cl)cc1 [Example 62]
1000 to 30000 nM	COc1ccc(C(=O)NC2(C(=O)O)Cc3ccccc3C2)cc1OCCC1CCCN1C (centres unmarked) [Example 64]
1000 to 30000 nM	COc1ccc(C(=O)NC2(C(=O)O)Cc3ccccc3C2)cc1OCc1cc(C)ccc1C [Example 65]
1000 to 30000 nM	COc1ccc(C(=O)NC2(C(=O)O)Cc3ccccc3C2)cc1OCCC1CCN(Cc2ccccc2)CC1 [Example 66]
1000 to 30000 nM	CCOC(=O)N1CCN(CCOc2cc(C(=O)NC3(C(=O)O)Cc4ccccc4C3)ccc2OC)CC1 [Example 67]

IC50	SMILES
1000 to 30000 nM	COc1ccc(C(=O)NC2(C(=O)O)Cc3ccccc3C2)cc1OCCCN1CCCC1=O [Example 68]
1000 to 30000 nM	COc1ccc(C(=O)NC2(C(=O)O)Cc3ccccc3C2)cc1OCc1nc2ccccc2n1C [Example 69]
1000 to 30000 nM	COc1ccc(C(=O)NC2(C(=O)O)Cc3ccccc3C2)cc1OCCc1nc(-c2ccccc2)oc1C [Example 70]
1000 to 30000 nM	CCn1cc(COc2cc(C(=O)NC3(C(=O)O)Cc4ccccc4C3)ccc2OC)cn1 [Example 71]
1000 to 30000 nM	COc1ccc(C(=O)NC2(C(=O)O)Cc3ccccc3C2)cc1OCc1csc2ccccc12 [Example 72]
1000 to 30000 nM	COc1ccc(C(=O)NC2(C(=O)O)Cc3ccccc3C2)cc1OCc1ccc(-n2ccnc2)cc1 [Example 73]
1000 to 30000 nM	COc1ccc(C(=O)NC2(C(=O)O)Cc3ccccc3C2)cc1OCc1cc(-c2csc(C)n2)on1 [Example 74]
1000 to 30000 nM	COc1ccc(C(=O)NC2(C(=O)O)Cc3ccccc3C2)cc1OCCSc1nccn1C [Example 75]
1000 to 30000 nM	COc1ccc(C(=O)NC2(C(=O)O)Cc3ccccc3C2)cc1OCc1ccc(N2CCCC2)nc1 [Example 76]
1000 to 30000 nM	COc1ccc(C(=O)NC2(C(=O)O)Cc3ccccc3C2)cc1OCc1ncc(C)c(NC(C)=O)c1C [Example 77]
1000 to 30000 nM	COc1ccc(C(=O)NC2(C(=O)O)Cc3ccccc3C2)cc1OCC1CCC(C(=O)O)C1 (centres unmarked) [Example 78]
1000 to 30000 nM	COc1ccc(C(=O)NC2(C(=O)O)Cc3ccccc3C2)cc1OCc1cn(-c2ccccc2)nn1 [Example 79]
1000 to 30000 nM	COc1ccc(C(=O)NC2(C(=O)O)Cc3ccccc3C2)cc1OCc1cc(C)n(C)n1 [Example 80]
< 100 nM	COc1ccc(C(=O)NC2(C(=O)O)Cc3ccccc3C2)cc1OCCC1=CC[C@H]2C[C@@H]1C2(C)C [Example 81]
1000 to 30000 nM	COc1ccc(C(=O)NC2(C(=O)O)Cc3ccccc3C2)cc1OCC1CC1C (centres unmarked) [Example 82]
1000 to 30000 nM	CC[C@H](COc1cc(C(=O)NC2(C(=O)O)Cc3ccccc3C2)ccc1OC)N1Cc2ccccc2C1 [Example 83]
1000 to 30000 nM	COc1ccc(C(=O)NC2(C(=O)O)Cc3ccccc3C2)cc1OCCCCCC(=O)O [Example 84]
1000 to 30000 nM	COc1ccc(C(=O)NC2(C(=O)O)Cc3ccccc3C2)cc1OCCCN1CCCCC1 [Example 85]

SMILES	IC50
C=CC1CN2CCC1CC2COc1cc(C(=O)NC2(C(=O)O)Cc3ccccc3C2)ccc1OC (centres unmarked) [Example 58]	1000 to 30000 nM
